Measured values: patent US20140005145A1, “COMBINATION BREAST CANCER THERAPY WITH HSP90 INHIBITORY COMPOUNDS” (SYNTA PHARMACEUTICALS CORP., priority 2010, published 2014)

How the values were obtained:
[1] = tested on: MCF-7 breast cancer cells; assay: Emergence of tamoxifen resistant clones in MCF-7 cell culture; assay type: cell-based, human; details: tamoxifen combined with compound 1, MCF-7 cell culture
[2] = tested on: MCF-7 human breast cancer tumor cells; assay: MCF-7 human breast tumor xenograft in nude mice, Compound 1 with or without tamoxifen; assay type: in vivo
Procedure: Tumor-bearing animals (5 mice/group) were i.v. injected 1 time per week for a total of 3 doses with 10 mL/kg of 10/18 DRD vehicle with or without 180 mg/kg Compound 1. Animals were also implanted with slow release tamoxifen pellets (Tam). In the combination treatment group, animals were dosed with Compound 1 four days after tamoxifen pellets were implanted. Each group that was not dosed with Compound 1 was instead dosed with 10/18 DRD vehicle as a mock treatment. Average tumor volumes for each group were determined every 3-5 days.
The human breast cancer cell line, MCF-7, was obtained from the American Type Culture Collection (Manassas, Va., USA) and grown according to the ATCC guidelines. MCF-7 xenografts were established in twenty nude mice (Charles River Laboratories, Wilmington, Mass., USA) supplemented with slow release estrogen pellets as previously described, using 5×10^6 cells (1), and randomized into treatment groups. Ten days after cells were inoculated half of the animals were supplemented with slow release tamoxifen pellets.
To formulate Compound 1 in 10/18 DRD, stock solutions of the test article were prepared by dissolving the appropriate amounts of the compound in dimethyl sulfoxide (DMSO) by sonication in an ultrasonic water bath. Stock solutions were prepared weekly, stored at −20° C. and diluted fresh each day for dosing. A solution of 20% Cremophor RH40 (polyoxyl 40 hydrogenated castor oil; BASF Corp., Aktiengesellschaft, Ludwigshafen, Germany) in 5% dextrose in water (D5W; Abbott Laboratories, North Chicago, Ill., USA) was also prepared by first heating 100% Cremophor RH40 at 50-60° C. until liquefied and clear, diluting 1:5 with 100% D5W, reheating again until clear and then mixing well. This solution was stored at room temperature for up to 3 months prior to use. To prepare 10/18 DRD formulations for daily dosing, DMSO stock solutions were diluted 1:10 with 20% Cremophor RH40. The final 10/18 DRD formulation for dosing contained 10% DMSO, 18% Cremophor RH40, 3.6% dextrose, 68.4% water and the appropriate amount of test article. Animals were intravenously (i.v.) injected with this formulation at 10 mL per kg body weight on one day each week for a total of 3 doses, four days after tamoxifen pellets were implanted.
The ability of Compound 1 to enhance the in vivo anti-tumor activity of tamoxifen was investigated.

SMILES	emergence of tamoxifen resistant clones [1]	adverse finding in dosed animals ([2]; Compound 1 alone cohort, 180 mg/kg i.v., one of the animals, following the first dose, removed from the study)	in vivo growth rate of MCF-7 cells (tumor volume) ([2]; Compound 1 alone, 180 mg/kg i.v. 1 time per week, 3 doses, nude mice)	effect in combination with tamoxifen in the treatment of breast cancer ([2]; in combination with tamoxifen, preclinical model)	tumor response (tumor volume) to the combination ([2]; slow release tamoxifen combined with 180 mg/kg Compound 1 i.v. 1 time per week, 3 doses, nude mice)	in vivo growth rate of MCF-7 cells (tumor volume) ([2]; slow release tamoxifen pellets alone (10/18 DRD vehicle as mock treatment), nude mice)
CC(C)c1cc(-c2nnc(O)n2-c2ccc3c(ccn3C)c2)c(O)cc1O [Compound 1, 3-(2,4-dihydroxy-5-isopropyl-phenyl)-4-(1-methyl-indol-5-yl)-5-hydroxy-[1,2,4]triazole]	dramatically limited the emergence of tamoxifen resistant clones	signs of necrosis in the tail	moderate reductions in the growth rate	surprising synergistic effect	significant tumor regression	
CC/C(=C(\c1ccccc1)c1ccc(OCCN(C)C)cc1)c1ccccc1 [tamoxifen, reference compound]						moderate reductions in the growth rate
